{"source": "patent US20020010157A1", "about": "“Composition and method for controlling insect pests and diseases on plants” (priority 2000, published 2002)", "key": {"[1]": {"test_system": "Aphids", "test": "Controlled environment, 2% glyceride emulsion: aphid survival on apple", "format": "in vivo", "conditions": "‘Delicious’ apple", "method": "(§1) Plant materials used for tests were either branches obtained from the fields or trees grew in pots in a green house.\n(§2) Plants growing in pot were inoculated with pests or pathogen and sprayed with 2% glyceride emulsions. Death rate of pests or number of lesions was evaluated one to three weeks after treatment.\n(§3) Since mineral oil has been widely used for insect pest and disease control in agriculture (Taschenberg, 1952; Walsh et al., 2000), it was included in the experiments for comparison."}, "[2]": {"test_system": "Mites", "test": "Controlled environment, 2% glyceride emulsion: mite survival on apple", "format": "in vivo, European red mite (ERM)", "conditions": "‘Delicious’ apple", "from_the_text": "as §1\n(§4) To test the effects of different glycerides on over winter pests such as San Jose Scale (SJS) or European red mite (ERM) on pome or stone fruit trees, stems from dormant ‘Delicious’ apple trees and ‘Feng Huang’ peach trees infested with SJS were collected and dipped in 2% of different glyceride emulsions with the untreated served as control. Stems were then trimmed to 25 cm long by removing from the base, put in a plate with the base submerging in 1-cm thick water, and incubated at 23 degree C for 2 weeks in a chamber. After incubation, 15 overwintering SJS (‘Black-cap’ stage of first instar) per stem were examined microscopically and assessed for viability. Apple or peach stems containing ERM eggs were collected in late dormant and treated as described above and incubated at 28 degree C., 80% relative humidity, and 16-hour light/8-hour dark cycle. Mite viability was evaluated by the following method. Stem segment were impaled onto insect pins that had been driven through 10×12 cm white posterboard containing a thin coat of sticky gel to trip newly hatched mites and facilitate their counting. Eggs were examined every 2 days until hatch was complete. […]"}, "[3]": {"test_system": "Psylla", "test": "Controlled environment, 2% glyceride emulsion: psylla survival on apple", "format": "in vivo", "conditions": "‘Delicious’ apple", "method": "as §1, §2, §3"}, "[4]": {"test_system": "Whitefly", "test": "Controlled environment, 2% glyceride emulsion: whitefly survival on apple", "format": "in vivo", "conditions": "‘Delicious’ apple", "method": "as §1, §2, §3"}, "[5]": {"test_system": "SJS", "test": "Controlled environment, 2% glyceride emulsion: SJS survival on apple", "format": "in vivo, San Jose Scale (SJS)", "conditions": "‘Delicious’ apple", "from_the_text": "as §1, §4"}, "[6]": {"test_system": "Aphids", "test": "Controlled environment, 2% glyceride emulsion: aphid survival on orange", "format": "in vivo", "conditions": "‘Qi Cheng’ orange", "method": "as §1, §2, §3"}, "[7]": {"test_system": "Mite", "test": "Controlled environment, 2% glyceride emulsion: mite survival on orange", "format": "in vivo", "conditions": "‘Qi Cheng’ orange", "method": "as §1, §2, §3"}, "[8]": {"test_system": "Aphids", "test": "Controlled environment, 2% glyceride emulsion: aphid survival on cotton", "format": "in vivo", "method": "as §1, §2, §3"}, "[9]": {"test_system": "Whitefly", "test": "Controlled environment, 2% glyceride emulsion: whitefly survival on cotton", "format": "in vivo", "method": "as §1, §2, §3"}, "[10]": {"test_system": "Aphids", "test": "Controlled environment, 2% glyceride emulsion: aphid survival on wheat", "format": "in vivo", "method": "as §1, §2, §3"}, "[11]": {"test_system": "Mites", "test": "Controlled environment, 2% glyceride emulsion: mite survival on wheat", "format": "in vivo", "method": "as §1, §2, §3"}, "[12]": {"test_system": "Aphids", "test": "Controlled environment, 2% glyceride emulsion: aphid survival on tomato", "format": "in vivo", "method": "as §1, §2, §3"}, "[13]": {"test_system": "Mites", "test": "Controlled environment, 2% glyceride emulsion: mite survival on tomato", "format": "in vivo", "method": "as §1, §2, §3"}, "[14]": {"test_system": "Aphids", "test": "Controlled environment, 2% glyceride emulsion: aphid survival on cabbage", "format": "in vivo", "method": "as §1, §2, §3"}, "[15]": {"test_system": "Whitefly", "test": "Controlled environment, 2% glyceride emulsion: whitefly survival on cabbage", "format": "in vivo", "method": "as §1, §2, §3"}, "[16]": {"test_system": "Scab", "test": "Controlled environment, 2% glyceride: scab severity on apple", "format": "in vivo", "conditions": "‘Delicious’ apple", "method": "as §1, §2, §3"}, "[17]": {"test_system": "Powdery mildew", "test": "Controlled environment, 2% glyceride: powdery mildew severity on apple", "format": "in vivo", "conditions": "‘Delicious’ apple", "method": "as §1, §2, §3"}, "[18]": {"test_system": "Bacterial canker", "test": "Controlled environment, 2% glyceride: bacterial canker severity on peach", "format": "in vivo", "conditions": "‘Feng Hung’ peach", "method": "as §1, §2, §3"}, "[19]": {"test_system": "Powdery mildew", "test": "Controlled environment, 2% glyceride: powdery mildew severity on peach", "format": "in vivo", "conditions": "‘Feng Hung’ peach", "method": "as §1, §2, §3"}, "[20]": {"test_system": "Leaf spot", "test": "Controlled environment, 2% glyceride: leaf spot severity on grape", "format": "in vivo", "conditions": "‘Long Yan’ grape", "method": "as §1, §2, §3"}, "[21]": {"test_system": "Powdery mildew", "test": "Controlled environment, 2% glyceride: powdery mildew severity on grape", "format": "in vivo", "conditions": "‘Long Yan’ grape", "method": "as §1, §2, §3"}, "[22]": {"test_system": "Brown rot", "test": "Controlled environment, 2% glyceride: brown rot severity on orange", "format": "in vivo", "conditions": "‘Qi Cheng’ orange", "method": "as §1, §2, §3"}, "[23]": {"test_system": "Psorosis", "test": "Controlled environment, 2% glyceride: psorosis severity on orange", "format": "in vivo", "conditions": "‘Qi Cheng’ orange", "method": "as §1, §2, §3"}, "[24]": {"test_system": "Fusarium wilt", "test": "Controlled environment, 2% glyceride emulsion: Fusarium wilt severity on cotton", "format": "in vivo", "method": "as §1, §2, §3"}, "[25]": {"test_system": "Verticillium wilt", "test": "Controlled environment, 2% glyceride emulsion: Verticillium wilt severity on cotton", "format": "in vivo", "method": "as §1, §2, §3"}, "[26]": {"test_system": "Barley strip", "test": "Controlled environment, 2% glyceride emulsion: Barley strip severity on wheat", "format": "in vivo", "method": "as §1, §2, §3"}, "[27]": {"test_system": "leaf scald", "test": "Controlled environment, 2% glyceride emulsion: leaf scald severity on wheat", "format": "in vivo", "method": "as §1, §2, §3"}, "[28]": {"test_system": "Leaf-spot", "test": "Controlled environment, 2% glyceride emulsion: leaf-spot severity on cabbage", "format": "in vivo", "method": "as §1, §2, §3"}, "[29]": {"test_system": "Verticillium wilt", "test": "Controlled environment, 2% glyceride emulsion: Verticillium wilt severity on cabbage", "format": "in vivo", "method": "as §1, §2, §3"}, "[30]": {"test_system": "Bacterial ring rot", "test": "Controlled environment, 2% glyceride emulsion: bacterial ring rot severity on potato", "format": "in vivo", "method": "as §1, §2, §3"}, "[31]": {"test_system": "Verticillium wilt", "test": "Controlled environment, 2% glyceride emulsion: Verticillium wilt severity on potato", "format": "in vivo", "method": "as §1, §2, §3"}, "[32]": {"test_system": "Bacterial Spot", "test": "Controlled environment, 2% glyceride emulsion: bacterial spot severity in tomatoes", "format": "in vivo", "method": "as §1, §2, §3"}, "[33]": {"test_system": "Verticillium wilt", "test": "Controlled environment, 2% glyceride emulsion: Verticillium wilt severity in tomatoes", "format": "in vivo", "method": "as §1, §2, §3"}, "[34]": {"test_system": "Fusarium wilt", "test": "Controlled environment, 2% glyceride emulsion: Fusarium wilt severity in tomatoes", "format": "in vivo", "method": "as §1, §2, §3"}, "[35]": {"test_system": "TMV (I)", "test": "Controlled environment, 2% glyceride emulsion: TMV (I) severity in tomatoes", "format": "in vivo, tobacco mosaic virus (TMV I)", "method": "as §1, §2, §3"}, "[36]": {"test_system": "TMV (II)", "test": "Controlled environment, 2% glyceride emulsion: TMV (II) severity in tomatoes", "format": "in vivo, tomato mosaic virus (TMV II)", "method": "as §1, §2, §3"}, "[37]": {"test_system": "TICV", "test": "Controlled environment, 2% glyceride emulsion: TICV severity in tomatoes", "format": "in vivo, tomato infectious chlorosis virus (TICV)", "method": "as §1, §2, §3"}, "[38]": {"test_system": "TSWV", "test": "Controlled environment, 2% glyceride emulsion: TSWV severity in tomatoes", "format": "in vivo, tomato spotted wilt virus (TSWV)", "method": "as §1, §2, §3"}}, "data": [{"smiles": "CCCCCCCCCCCC(=O)OCC(O)CO", "note": "(centres unmarked) [Monolaurin]", "values": [{"measurement": "pest survival (%), Apples, Aphids", "setting": "[1]", "value": 34, "unit": "e %"}, {"measurement": "pest survival (%), Apples, Mites", "setting": "[2]", "value": 0, "unit": "g %"}, {"measurement": "pest survival (%), Apples, Psylla", "setting": "[3]", "value": 35, "unit": "e %"}, {"measurement": "pest survival (%), Apples, Whitefly", "setting": "[4]", "value": 31, "unit": "e %"}, {"measurement": "pest survival (%), Apples, SJS", "setting": "[5]", "value": 0, "unit": "f %"}, {"measurement": "pest survival (%), Oranges, Aphids", "setting": "[6]", "value": 31, "unit": "e %"}, {"measurement": "pest survival (%), Oranges, Mite", "setting": "[7]", "value": 39, "unit": "e %"}, {"measurement": "pest survival (%), Cotton, Aphids", "setting": "[8]", "value": 30, "unit": "e %"}, {"measurement": "pest survival (%), Cotton, Whitefly", "setting": "[9]", "value": 31, "unit": "f %"}, {"measurement": "pest survival (%), Wheat, Aphids", "setting": "[10]", "value": 21, "unit": "e %"}, {"measurement": "pest survival (%), Wheat, Mites", "setting": "[11]", "value": 33, "unit": "e %"}, {"measurement": "pest survival (%), Tomato, Aphids", "setting": "[12]", "value": 27, "unit": "e %"}, {"measurement": "pest survival (%), Tomato, Mites", "setting": "[13]", "value": 34, "unit": "e %"}, {"measurement": "pest survival (%), Cabbage, Aphids", "setting": "[14]", "value": 17, "unit": "e %"}, {"measurement": "pest survival (%), Cabbage, Whitefly", "setting": "[15]", "value": 28, "unit": "f %"}, {"measurement": "disease severity, Apples, Scab", "setting": "[16]", "value": "14f^z % of untreated control"}, {"measurement": "disease severity, Apples, Powdery mildew", "setting": "[17]", "value": "18f % of untreated control"}, {"measurement": "disease severity, Peaches, Bacterial canker", "setting": "[18]", "value": "24f % of untreated control"}, {"measurement": "disease severity, Peaches, Powdery mildew", "setting": "[19]", "value": "13g % of untreated control"}, {"measurement": "disease severity, Grapes, Leaf spot", "setting": "[20]", "value": "37f % of untreated control"}, {"measurement": "disease severity, Grapes, Powdery mildew", "setting": "[21]", "value": "16g % of untreated control"}, {"measurement": "disease severity, Oranges, Brown rot", "setting": "[22]", "value": "34e % of untreated control"}, {"measurement": "disease severity, Oranges, Psorosis", "setting": "[23]", "value": "32d % of untreated control"}, {"measurement": "disease severity, Cotton, Fusarium wilt", "setting": "[24]", "value": "43e^z % of untreated control"}, {"measurement": "disease severity, Cotton, Verticillium wilt", "setting": "[25]", "value": "48d % of untreated control"}, {"measurement": "disease severity, Wheat, Barley strip", "setting": "[26]", "value": "19f % of untreated control"}, {"measurement": "disease severity, Wheat, leaf scald", "setting": "[27]", "value": "32f % of untreated control"}, {"measurement": "disease severity, Cabbage, Leaf-spot", "setting": "[28]", "value": "23f % of untreated control"}, {"measurement": "disease severity, Cabbage, Verticillium wilt", "setting": "[29]", "value": "46de % of untreated control"}, {"measurement": "disease severity, Potato, Bacterial ring rot", "setting": "[30]", "value": "47e % of untreated control"}, {"measurement": "disease severity, Potato, Verticillium wilt", "setting": "[31]", "value": "37e % of untreated control"}, {"measurement": "disease severity, Bacterial Spot", "setting": "[32]", "value": "18f^z % of untreated control"}, {"measurement": "disease severity, Verticillium wilt", "setting": "[33]", "value": "26f % of untreated control"}, {"measurement": "disease severity, Fusarium wilt", "setting": "[34]", "value": "29f % of untreated control"}, {"measurement": "disease severity, TMV (I)", "setting": "[35]", "value": "37e % of untreated control"}, {"measurement": "disease severity, TMV (II)", "setting": "[36]", "value": "43d % of untreated control"}, {"measurement": "disease severity, TICV", "setting": "[37]", "value": "33f % of untreated control"}, {"measurement": "disease severity, TSWV", "setting": "[38]", "value": "27e % of untreated control"}]}]}
